Several values for one entry are separate records, joined by “and”; a condition that tells them apart may be missing. Identical values can stand only once. Records with an inconclusive call do not appear.
System: BDF1 mice, colon carcinoma 38 sc, T/C %
Assay: NCI In Vivo Anticancer Drug Screen. Data for tumor model Colon Carcinoma 38 (subcutaneous) in B6D2F1 (BDF1) mice
Settings: endpoint: median tumor weight (est.), higher = larger tumour
In short: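 Transplantable tumor in mice; compound-treated vs vehicle-dosed controls. Measured survival or tumor size; value = T ÷ C.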

[1] = dose: 0.75 mg/kg/injection, schedule: Q07DX002 (ip), vehicle: Klucel (hydroxypropylcellulose) (HPC)
[2] = dose: 1.5 mg/kg/injection, schedule: Q07DX002 (ip), vehicle: Klucel (hydroxypropylcellulose) (HPC)
[3] = dose: 50.0 mg/kg/injection, schedule: Q07DX002 (ip), vehicle: saline with Tween-80
[4] = dose: 100.0 mg/kg/injection, schedule: Q07DX002 (ip), vehicle: saline with Tween-80
[5] = dose: 200.0 mg/kg/injection, schedule: Q07DX002 (ip), vehicle: saline with Tween-80
[6] = dose: 6.25 mg/kg/injection, schedule: Q07DX002 (ip), vehicle: saline with Tween-80
[7] = dose: 12.5 mg/kg/injection, schedule: Q07DX002 (ip), vehicle: saline
[8] = dose: 2.0 mg/kg/injection, schedule: Q07DX003 (ip), vehicle: saline with Tween-80
[9] = dose: 8.0 mg/kg/injection, schedule: Q07DX003 (ip), vehicle: saline with Tween-80
[10] = dose: 12.5 mg/kg/injection, schedule: Q07DX002 (ip), vehicle: saline with Tween-80
[11] = dose: 25.0 mg/kg/injection, schedule: Q07DX002 (ip), vehicle: saline with Tween-80
[12] = dose: 25.0 mg/kg/injection, schedule: Q07DX002 (ip), vehicle: saline
[13] = dose: 100.0 mg/kg/injection, schedule: Q07DX002 (ip), vehicle: saline

`C=C(C)C1C2CC3(C)C4(CO4)C4OC4C3(O)C1C(=O)O2` (configuration not stated) was tested, and the T/C (dose: 0.38 mg/kg/injection, schedule: Q07DX002 (ip), vehicle: Klucel (hydroxypropylcellulose) (HPC)) was 81 % of control, the T/C [1] was 104 % of control and the T/C [2] was 112 % of control.

With `S=P(N1CC1)(N1CC1)N1CC1` the T/C (dose: 1.5 mg/kg/injection, schedule: Q07DX003 (ip), vehicle: saline) was 99 % of control, the T/C (dose: 3.0 mg/kg/injection, schedule: Q07DX003 (ip), vehicle: saline) was 50 % of control and the T/C (dose: 6.0 mg/kg/injection, schedule: Q07DX003 (ip), vehicle: saline) was 55 % of control.

For `CN(C)P(=O)(Oc1ccccc1)N(C)C`, the T/C [3] was 68 % of control, the T/C [4] was 62 % of control and the T/C [5] was 86 % of control.

`C=C(OP(=O)(OC)OC)Sc1ccccc1C` was tested, and the T/C (dose: 0.18 mg/kg/injection, schedule: Q07DX002 (ip), vehicle: Klucel (hydroxypropylcellulose) (HPC)) was 112 % of control, the T/C (dose: 0.37 mg/kg/injection, schedule: Q07DX002 (ip), vehicle: Klucel (hydroxypropylcellulose) (HPC)) was 59 % of control and the T/C [1] was 101 % of control. For the same compound, the T/C [2] was 100 % of control and the T/C (dose: 1.56 mg/kg/injection, schedule: Q07DX002 (ip), vehicle: Klucel (hydroxypropylcellulose) (HPC)) was 122 % of control.

`Cc1c(CNc2ccc(C(=O)NC(CC(=O)O)C(=O)O)cc2)ccc2nc(N)nc(N)c12` (configuration not stated) was tested, and the T/C (dose: 1.56 mg/kg/injection, schedule: Q07DX002 (ip), vehicle: saline with Tween-80) was 86 % of control, the T/C (dose: 1.56 mg/kg/injection, schedule: Q07DX002 (ip), vehicle: saline) was 122 % of control and the T/C (dose: 3.12 mg/kg/injection, schedule: Q07DX002 (ip), vehicle: saline with Tween-80) was 87 % of control. For the same compound, the T/C (dose: 3.12 mg/kg/injection, schedule: Q07DX002 (ip), vehicle: saline) was 96 % of control, the T/C [6] was 35 % of control and the T/C (dose: 6.25 mg/kg/injection, schedule: Q07DX002 (ip), vehicle: saline) was 48 % of control. The T/C [7] was 32 % of control.

With `O=NN(CCCl)C(=O)NC1CCC(=O)NC1=O` (configuration not stated) the T/C [8] was 82 % of control, the T/C (dose: 4.0 mg/kg/injection, schedule: Q07DX003 (ip), vehicle: saline with Tween-80) was 93 % of control and the T/C [9] was 76 % of control. For the same compound, the T/C (dose: 13.0 mg/kg/injection, schedule: Q07DX003 (ip), vehicle: saline with Tween-80) was 57 % of control and the T/C (dose: 20.0 mg/kg/injection, schedule: Q07DX003 (ip), vehicle: saline with Tween-80) was 12 % of control.

With `CS(=O)(=O)OCCCCOS(C)(=O)=O` the T/C (dose: 32.0 mg/kg/injection, schedule: Q01DX005 (ip), vehicle: saline with Tween-80) was 15 % of control.

`CCCCNCCCNCCCNC(=O)c1csc(-c2csc(CCNC(=O)C(NC(=O)C(C)C(O)C(C)NC(=O)C(NC(=O)c3nc(C(CC(N)=O)NCC(N)C(N)=O)nc(N)c3C)C(OC3OC(CO)C(O)C(O)C3OC3OC(CO)C(O)C(OC(N)=O)C3O)c3cnc[nH]3)C(C)O)n2)n1` (configuration not stated) was tested, and the T/C (dose: 3.75 mg/kg/injection, schedule: Q07DX002 (ip), vehicle: water) was 81 % of control, the T/C (dose: 7.5 mg/kg/injection, schedule: Q07DX002 (ip), vehicle: water) was 61 % of control and the T/C (dose: 15.0 mg/kg/injection, schedule: Q07DX002 (ip), vehicle: water) was 56 % of control. The T/C (dose: 30.0 mg/kg/injection, schedule: Q07DX002 (ip), vehicle: water) was 48 % of control.

In the case of `CC(=O)Oc1c[nH]c(=O)[nH]c1=O`, the T/C (dose: 50.0 mg/kg/injection, schedule: Q07DX002 (ip), vehicle: distilled water + Tween-80) is reported as 107 % of control, the T/C (dose: 100.0 mg/kg/injection, schedule: Q07DX002 (ip), vehicle: distilled water + Tween-80) is reported as 108 % of control and 121 % of control and the T/C (dose: 400.0 mg/kg/injection, schedule: Q07DX002 (ip), vehicle: distilled water + Tween-80) is reported as 124 % of control. The T/C (dose: 800.0 mg/kg/injection, schedule: Q07DX002 (ip), vehicle: distilled water + Tween-80) was 121 % of control and 102 % of control.

In the case of `CC1(CO)C(O)CCC2(C)C1CCC1CC3CC12CCC3(O)CO` (configuration not stated), the T/C [10] is reported as 120 % of control, the T/C [11] is reported as 103 % of control and the T/C [3] is reported as 100 % of control. The T/C [4] was 124 % of control, the T/C [5] was 77 % of control and the T/C (dose: 400.0 mg/kg/injection, schedule: Q07DX002 (ip), vehicle: saline with Tween-80) was 89 % of control.

With `CC1=C(C)C(=O)O[C@@H]([C@](C)(O)[C@]2(O)CC[C@@]3(O)[C@@H]4C[C@H]5O[C@]56CC=CC(=O)[C@]6(C)[C@H]4CC[C@]23C)C1` the T/C [7] was 110 % of control, the T/C [12] was 96 % of control and the T/C (dose: 28.1 mg/kg/injection, schedule: Q07DX002 (ip), vehicle: saline) was 162 % of control. For the same compound, the T/C (dose: 56.2 mg/kg/injection, schedule: Q07DX002 (ip), vehicle: saline) was 90 % of control, the T/C [13] was 117 % of control and the T/C (dose: 112.5 mg/kg/injection, schedule: Q07DX002 (ip), vehicle: saline) was 160 % of control. For the same compound, the T/C (dose: 200.0 mg/kg/injection, schedule: Q07DX002 (ip), vehicle: saline) was 83 % of control and the T/C (dose: 225.0 mg/kg/injection, schedule: Q07DX002 (ip), vehicle: saline) was 70 % of control.

With `C=C1C(C)C2C(Cc3ccccc3)NC(=O)C23C(OC(C)=O)/C=C/C(C)(O)CC(C)C/C=C/C3C1O` (configuration not stated) the T/C [1] was 86 % of control, the T/C [2] was 115 % of control and the T/C (dose: 3.0 mg/kg/injection, schedule: Q07DX002 (ip), vehicle: Klucel (hydroxypropylcellulose) (HPC)) was 77 % of control. For the same compound, the T/C (dose: 6.0 mg/kg/injection, schedule: Q07DX002 (ip), vehicle: Klucel (hydroxypropylcellulose) (HPC)) was 100 % of control, the T/C (dose: 12.0 mg/kg/injection, schedule: Q07DX002 (ip), vehicle: Klucel (hydroxypropylcellulose) (HPC)) was 95 % of control and the T/C (dose: 24.0 mg/kg/injection, schedule: Q07DX002 (ip), vehicle: Klucel (hydroxypropylcellulose) (HPC)) was 90 % of control.

With `Oc1cc2c3c(c1)c1cc4c(cc1c[n+]3CC2)OCO4` the T/C (dose: 3.12 mg/kg/injection, schedule: Q07DX002 (ip), vehicle: water) was 102 % of control, the T/C (dose: 6.25 mg/kg/injection, schedule: Q07DX002 (ip), vehicle: water) was 77 % of control and 95 % of control and the T/C (dose: 25.0 mg/kg/injection, schedule: Q07DX002 (ip), vehicle: water) was 71 % of control. For the same compound, the T/C (dose: 50.0 mg/kg/injection, schedule: Q07DX002 (ip), vehicle: water) was 67 % of control and 71 % of control.

With `COC1=CC(=O)C(OC)=C(OC)C1=O` the T/C [6] was 115 % of control and 92 % of control, the T/C [10] was 160 % of control and 185 % of control and the T/C [3] was 62 % of control and 65 % of control. For the same compound, the T/C [4] was 152 % of control and the T/C [5] was 189 % of control.

With `c1ccc2c(c1)-c1ccccc1C1NC21` (configuration not stated) the T/C (dose: 12.0 mg/kg/injection, schedule: Q07DX002 (ip), vehicle: saline with Tween-80) was 104 % of control, the T/C [11] was 117 % of control and the T/C [3] was 93 % of control.

With `COc1ccc(C(Cn2ccnc2)Sc2ccc(Cl)c(Cl)c2)cc1` (configuration not stated) the T/C [11] was 63 % of control and 87 % of control and the T/C [4] was 114 % of control.

With `CC(=O)C1=C(O)C2(O)C(=O)c3c(c(C)c4ccc(C)c(O)c4c3O)CC2C(N)C1=O` (configuration not stated) the T/C (dose: 7.5 mg/kg/injection, schedule: Q07DX002 (ip), vehicle: saline + alcohol) was 79 % of control and 95 % of control, the T/C (dose: 15.0 mg/kg/injection, schedule: Q07DX002 (ip), vehicle: saline + alcohol) was 87 % of control and 106 % of control and the T/C (dose: 60.0 mg/kg/injection, schedule: Q07DX002 (ip), vehicle: saline + alcohol) was 95 % of control and 107 % of control. The T/C (dose: 120.0 mg/kg/injection, schedule: Q07DX002 (ip), vehicle: saline + alcohol) was 87 % of control.

For `C=C(C)[C@H]1Cc2c(ccc3c2O[C@@H]2COc4cc(OC)c(OC)cc4[C@@H]2C3=O)O1`, the T/C [8] was 230 % of control and the T/C [9] was 98 % of control.

With `C=CCc1cn(C2CC(O)C(CO)O2)c(=O)[nH]c1=O` (configuration not stated) the T/C [12] was 85 % of control, the T/C (dose: 50.0 mg/kg/injection, schedule: Q07DX002 (ip), vehicle: saline) was 78 % of control and the T/C [13] was 62 % of control and 65 % of control.

`CC(C)(C)C1CCCCC1` was tested, and the T/C (dose: 12.5 mg/kg/injection, schedule: Q07DX002 (ip), vehicle: Klucel (hydroxypropylcellulose) (HPC)) was 100 % of control, the T/C (dose: 25.0 mg/kg/injection, schedule: Q07DX002 (ip), vehicle: Klucel (hydroxypropylcellulose) (HPC)) was 124 % of control and the T/C (dose: 100.0 mg/kg/injection, schedule: Q07DX002 (ip), vehicle: Klucel (hydroxypropylcellulose) (HPC)) was 104 % of control. The T/C (dose: 200.0 mg/kg/injection, schedule: Q07DX002 (ip), vehicle: Klucel (hydroxypropylcellulose) (HPC)) was 77 % of control.
